Laboratory results published in patent US10800778B2 (Entasis Therapeutics Limited, priority 2016, dated 2020).
Structures can show the parent of a compound that is named as a salt.

What was measured:
[1] = biological target: OXA-48 (Class D beta-lactamase) (Klebsiella pneumoniae, UniProt Q6XEC0); experiment: Inhibition of beta-lactamase enzymes (nitrocefin hydrolysis), OXA-48; format: biochemical; settings: read-out: Class D OXA-48 60 min IC50, nitrocefin 100 μM
Summary of the method: (§1)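 Nitrocefin (100 μM) hydrolysis followed at 490 nm for 1 h in 0.1 M sodium phosphate pH 7.0, 10 mM NaHCO3, 0.005% Triton X-100, with 3-fold inhibitor dilutions from 100 μM to 62.7 pM. Progress curves fitted globally to give kinact/Ki or Ki; percent inhibition from best-fit absorbance fitted with Hill equation.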

[2] = biological target: TEM-1 (Class A beta-lactamase) (Escherichia coli, UniProt P62593); experiment: Inhibition of beta-lactamase enzymes (nitrocefin hydrolysis), TEM-1; format: biochemical; settings: read-out: Class A TEM-1 60 min IC50, nitrocefin 100 μM
Summary of the method: as §1

[3] = Rat PK, intravenous and oral; format: in vivo, Sprague-Dawley rats; settings: for AUC: Sprague-Dawley, plasma, rat, IV 10 mg/kg, analyte = compound administered; for Circulating concentrations of the ester in plasma: rat plasma, LC/MS/MS
Experimental: Intravenous rat pharmacokinetics of exemplar compounds were determined in jugular vein cannulated Sprague-Dawley rats (n=3) (Harlan Laboratories, Indianapolis, Ind.) at a dose of 10 mg/kg. Compounds were dissolved and administered intravenously in 0.9% saline, pH 6.5 at a dose volume of 2 mL/kg. […] Oral pharmacokinetic studies were conducted with exemplar compounds at 10 mg/kg equivalents of carboxylic acids. Doses were dissolved and administered orally in 25:75 PEG400: water for injection, pH 4.5 at a dose volume of 10 mL/kg. […] Plasma samples were stored at −80° C. prior to bioanalysis.
Plasma samples were thawed on ice prior to processing. Samples (30 μL) were diluted and proteins precipitated with 180 μL of acetonitrile containing 0.1% formic acid and 250 ng/mL of carbutamide (N1-(butylcarbanoyl)-sulfanilamide, Sigma-Aldrich Catalog # S385433) as an internal standard. Samples were vortexed for 30 seconds, centrifuged at 3400 g for 10 minutes and the supernatant transferred to injection vials.
LC/MS/MS analysis was completed on an AB Sciex QTrap 6500 mass spectrometer in positive ionization mode, coupled to a Schimadzu Nexera LC system. A Waters Atlantis T3 (3 μm, 3.0×50 mm) column was used for chromatographic separation. Injection volume was […] The mobile phase consisted 0.1% formic acid in water (A) and 0.1% formic acid in acetonitrile (B), with a gradient of 2-98% B:A over two minutes.
Plasma concentration vs. time profiles following intravenous (IV) administration and oral (PO) administration of exemplar compounds were analyzed by non-compartment analysis using WinNonLin 6.4.

[4] = test system: E. coli WT (ATCC 25922); experiment: MIC, CLSI broth microdilution, beta-lactam with or without BLI; format: cell-based; settings: BLI at fixed 4 μg/ml
Experimental: (§2) The minimal inhibitory concentration (MIC) values against each organism and drug combination were determined using the Clinical and Laboratory Standards Institute guidelines (CLSI) broth microdilution methodology (CLSI M07-A10). The recommended quality control (QC) bacterial strains E. coli ATCC 25922, E. coli ATCC 35218 and Klebsiella pneumoniae ATCC 700603 were incorporated into each test according to the CLSI guidelines to assure that there was no variation between test dates (CLSI M100-S25). The MICs of these QC strains were within QC range on all test occasions. Drug containing plates were made using the master plate method. A cefpodoxime solution was prepared to 20× concentration and 2-fold serial dilutions were made in cation adjusted Mueller-Hinton Broth. Equal volumes of 20× examplar compounds at a fixed concentration were added to the master plate. 10 uL was stamped into daughter plates using a Tecan EVO robot. Organism suspensions were adjusted to a 0.5 McFarland standard and further diluted to yield a final inoculum between 3×10^5 and 7×10^5 colony-forming units (CFU)/mL. Bacterial inocula were made in sterile, cation adjusted Mueller-Hinton Broth (Beckton Dickinson). An inoculum volume of 1.1× concentration of 90 uL was added to wells (using a Tecan EVO robot). All inoculated microdilution plates were incubated in ambient air at 35° C. for 18-24 hours.
(§3) Following the procedure from Example 103, MICs were determined for several beta-lactams in presence of a fixed concentration (4 μg/mL) of exemplar compounds (Table 3) against 3 Enterobacteriaceae strains.

[5] = test system: C. freundii AmpC, TEM-1, CMY65; experiment: as above; format: cell-based; settings: BLI at fixed 4 μg/ml
Experimental: as §2, §3

[6] = test system: Klebsiella pneumoniae SHV-18, OXA-2, OKP-6 (ATCC 700603); experiment: as above; format: cell-based; settings: BLI at fixed 4 μg/ml; K. pneumoniae ATCC 700603
Experimental: as §2, §3

[7] = test system: E. coli ARC2687 (AmpC, CTX-M-14); experiment: Mouse neutropenic thigh infection model, oral efficacy of cefpodoxime proxetil with Example 35; format: in vivo
Experimental: The oral in vivo efficacy of Example 35 was evaluated in combination with cefpodoxime proxetil in a mouse neutropenic thigh infection model versus a relevant clinical isolate. […] CD-1 mice (Charles River, Wilmington US) were housed in shoebox type cages with contact bedding and acclimated to the facility for a minimum of 2 days prior to use. The animal room was maintained at 70° F., with 50+/−10% relative humidity and a 12-hour light/dark cycle. The study was conducted using an IACUC-approved protocol in accordance with Title 9 of the Code of Federal Regulations. Animals were rendered neutropenic with two intraperitoneal doses of cyclophosphamide (150 mg/kg—4 days and 100 mg/kg—1 day prior to infection (Gerber et al. (1983) J Infect Dis 147(5); 910-917)). Animals were infected via an intramuscular challenge of ˜1×10^6 CFU administered within 100 μL of 0.9% saline. The inoculum was prepared from a 25 mL overnight culture of E. coli ARC 2687 in tryptic soy broth media. Following an OD600 determination, the inoculum was diluted in 0.9% saline to a concentration of […] prior to inoculation into the left and right thigh. Oral therapy with cefpodoxime proxetil alone and in combination with Example 35 was initiated 2 hours post bacterial challenge. Doses were suspended in 0.5% HPMC/0.1% Tween 80 and administered by oral gavage at a dose volume of 10 mL/kg. A terminal endpoint was obtained at 24 hr to determine bacterial counts in thigh tissue (CFU/gm). Animals were ethically euthanized, thighs were asceptically removed, weighed and homogenized in 1 mL of saline. Bacterial burden enumeration of tissue homogenate was performed by serial dilution on tryptic soy agar plates which were incubated overnight at 37° C. prior to colony (CFU) counting. The lower limit of detection was ˜2.6 log10 CFU/gm of tissue.

[8] = Stability/conversion of esters in human liver S9; format: in vitro ADME
Summary of the method: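 Ester test compounds (10 μM) were incubated at 37° C with human liver S9 at 0.8 mg/mL in 100 mM HEPES buffer, pH 7.4. Aliquots taken from 0 to 60 min were quenched in acetonitrile containing carbutamide internal standard, centrifuged, and analyzed by LC-MS/MS MRM; first-order half-lives came from loss of the parent ester.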

[9] = Stability/conversion of esters in human intestinal S9; format: in vitro ADME
Summary of the method: (§4)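 Esters at 10 μM incubated at 37 °C with 0.8 mg/mL S9 (human intestinal without PMSF, rat liver or rat intestinal) or no enzyme, in 100 mM HEPES pH 7.4; sampled 0–60 min. LC-MS/MS tracked ester and hydrolysed active; first-order T1/2 from ester disappearance.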

[10] = Stability/conversion of esters in rat liver S9; format: in vitro ADME
Summary of the method: as §4

[11] = Stability in pH 7.4 buffer (no enzyme); format: physicochemical; settings: read-out: T1/2 pH 7.4 Buffer
Summary of the method: as §4

[12] = Stability/conversion of esters in rat intestinal S9; format: in vitro ADME
Summary of the method: as §4

OXA-48 (Class D beta-lactamase), sequence (Q6XEC0 whole entry, looked up, species assumed): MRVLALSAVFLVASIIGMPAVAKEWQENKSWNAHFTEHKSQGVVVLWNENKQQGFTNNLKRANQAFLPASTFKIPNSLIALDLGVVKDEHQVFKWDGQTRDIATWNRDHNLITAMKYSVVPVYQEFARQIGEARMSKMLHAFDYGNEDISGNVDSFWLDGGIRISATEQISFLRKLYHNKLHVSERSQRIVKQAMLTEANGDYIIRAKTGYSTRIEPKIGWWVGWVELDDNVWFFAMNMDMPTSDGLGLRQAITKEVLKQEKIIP
TEM-1 (Class A beta-lactamase), sequence (P62593 whole entry, looked up, species assumed): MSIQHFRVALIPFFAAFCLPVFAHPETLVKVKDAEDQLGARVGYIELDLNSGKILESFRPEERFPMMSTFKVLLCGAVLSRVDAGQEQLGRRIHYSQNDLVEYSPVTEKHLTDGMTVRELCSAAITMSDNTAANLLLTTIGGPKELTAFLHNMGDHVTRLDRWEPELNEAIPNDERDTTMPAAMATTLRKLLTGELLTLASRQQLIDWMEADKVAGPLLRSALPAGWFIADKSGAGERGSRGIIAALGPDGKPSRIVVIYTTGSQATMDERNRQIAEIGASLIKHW

SMILES	IC50 [1] [nM]	IC50 [2] [nM]	AUC [3] [µM·h]	MIC of cefixime in presence of BLI [4] [µg/mL]	MIC of cefuroxime in presence of BLI [4] [µg/mL]	MIC of faropenem in presence of BLI [4] [µg/mL]	MIC of tebipenem in presence of BLI [4] [µg/mL]	MIC of cefixime in presence of BLI [5] [µg/mL]	MIC of cefuroxime in presence of BLI [5] [µg/mL]	MIC of faropenem in presence of BLI [5] [µg/mL]	MIC of tebipenem in presence of BLI [5] [µg/mL]	MIC of cefixime in presence of BLI [6] [µg/mL]	MIC of faropenem in presence of BLI [6] [µg/mL]	MIC of tebipenem in presence of BLI [6] [µg/mL]	Circulating concentrations of the ester in plasma [3]	further results
CC1=C[C@@H]2CN(C(=O)N2O[C@H](F)C(=O)O)[C@@H]1C(N)=O [Example 4, (2R)-{[(2S,5R)-2-carbamoyl-3-methyl-7-oxo-1,6-diazabicyclo[3.2.1]oct-3-en-6-yl]oxy}(fluoro)ethanoic acid lithium salt]	15	1.35	19.1	≤0.06	0.02	≤0.06	≤0.06	≤0.06	0.02	≤0.06	≤0.06	≤0.06	1	≤0.06	–	–
CC1=C[C@@H](C(N)=O)N2C[C@@H]1N(O[C@@H](F)C(=O)O)C2=O [Example 34, (2S)-2-(((2S,5R)-2-carbamoyl-4-methyl-7-oxo-1,6-diazabicyclo[3.2.1]oct-3-en-6-yl)oxy)-2-fluoroacetic acid lithium salt]	19	26	16.1	≤0.06	<0.03125	≤0.06	≤0.06	≤0.06	<0.03125	≤0.06	≤0.06	≤0.06	0.5	≤0.06	–	MIC of cefuroxime in presence of BLI [6]: 1 µg/mL
CC1=C[C@@H](C(N)=O)N2C[C@@H]1N(O[C@H](F)C(=O)OC(C)C)C2=O [Example 35, (2R)-isopropyl 2-(((2S,5R)-2-carbamoyl-4-methyl-7-oxo-1,6-diazabicyclo[3.2.1]oct-3-en-6-yl)oxy)-2-fluoroacetate]	–	–	–	–	–	–	–	–	–	–	–	–	–	–	Rapid hydrolysis precluded satisfactory analysis of circulating concentrations	maximal kill relative to initiation of therapy ([7]; 50 mg/kg cefpodoxime proxetil + 100 mg/kg Example 35 q6h, oral, 24 hr): −0.75 log10 CFU/gm; log10CFU/gm thigh ([7]; Example 35 alone 10 mg/kg PO/q6h, mouse neutropenic thigh, E. coli ARC2687): 9.56 log10CFU/gm thigh; CFU Change from 26 hr ([7]; Example 35 alone 10 mg/kg PO/q6h, relative to 26 hr growth control): −1.30 log10 CFU/gm; CFU Change from 2 hr ([7]; Example 35 alone 10 mg/kg PO/q6h, relative to initiation of therapy): +3.29 log10 CFU/gm; growth of bacterial burden in thighs after 24 hours of therapy ([7]; Example 35 alone at 10 mg/kg q6h, oral, neutropenic CD-1 mice): greater than 3 log10 CFU/gm; effect of increasing dose on bacterial burden ([7]; in combination with cefpodoxime proxetil 50 mg/kg q6h, oral): dose dependent reduction of bacterial burden; half-life at 10 μM ([8]; s9, pH 7.4, read-out: T1/2 Human Liver S9): 0.65 h; half-life at 10 μM ([9]; s9, pH 7.4, read-out: T1/2 Human Intestinal S9): 2.72 h; half-life at 10 μM ([10]; s9, pH 7.4, read-out: T1/2 Rat Liver S9): 0.533 h; half-life at 10 μM ([11]; buffer): 3.1 h; half-life at 10 μM ([12]; s9, pH 7.4, read-out: T1/2 Rat Intestinal S9): 4 h
CC1=C[C@@H]2CN(C(=O)N2O[C@H](F)C(=O)OC(C)C)[C@@H]1C(N)=O [Example 12, propan-2-yl (2R)-{[(2S,5R)-2-carbamoyl-3-methyl-7-oxo-1,6-diazabicyclo[3.2.1]oct-3-en-6-yl]oxy}(fluoro)ethanoate]	–	–	–	–	–	–	–	–	–	–	–	–	–	–	Rapid hydrolysis precluded satisfactory analysis of circulating concentrations	half-life at 10 μM ([8]; liver S9, pH 7.4, read-out: T1/2 Human Liver S9): 0.267 h; half-life at 10 μM ([9]; intestinal S9 (without PMSF), pH 7.4, read-out: T1/2 Human Intestinal S9): 2.2 h; half-life at 10 μM ([10]; liver S9, pH 7.4, read-out: T1/2 Rat Liver S9): 0.233 h; half-life at 10 μM ([11]; HEPES buffer without enzyme): 3.93 h; half-life at 10 μM ([12]; intestinal S9, pH 7.4, read-out: T1/2 Rat Intestinal S9): 3.88 h
CC1=C[C@@H]2CN(C(=O)N2O[C@@H](F)C(=O)O)[C@@H]1C(N)=O [Example 3, (2S)-{[(2S,5R)-2-carbamoyl-3-methyl-7-oxo-1,6-diazabicyclo[3.2.1]oct-3-en-6-yl]oxy}(fluoro)ethanoic acid lithium salt]	15	19	34.9	0.125	0.02	0.25	≤0.06	1	1	0.25	≤0.06	0.5	2	0.125	–	–
